Like-named read-outs stand apart in the source and are kept apart here.
What was measured:
[1] = test system: HIV-1 (IIIB) in MT-4 cells; test: MT-4 HIV assay; format: cell-based; conditions: Human immunodeficiency virus 1, MT4, 120 h
Outline: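 MT-4 cells infected with HIV-1 IIIB (1:250 stock dilution) were incubated with 1:3 serially diluted compounds in RPMI with 10% FBS for 5 days at 37 °C. Cell Titer Glo luminescence was the readout. Plates included mock-infected wells, no-drug wells and 5 uM AZT controls.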

[2] = Outline: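 Dog, rat and human liver microsomes (0.5 mg/mL) with NADPH-regenerating cofactor; test compound 1 uM, duplicates. Timepoints 2, 12, 25, 45, 65 min; protein removed by centrifugation, supernatant analysed by LC/MS/MS. Clint from t1/2.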
[3] = HIV-1 (IIIB), MT-4 cells, 5 days, Cell Titer Glo, read-out: EC50
[4] = human liver microsomes 0.5 mg/mL, 1 uM compound, NADPH
[5] = rat liver microsomes 0.5 mg/mL, 1 uM compound, NADPH

Structure (SMILES)	EC50 [1, 3]	Human Pred Cl. ([2]; human, microsomes)	Rat. Pred. Cl. ([2]; rat, microsomes)	EC50 [1]	Human Pred Cl. [2, 4]	Rat. Pred. Cl. [2, 5]
COC(=O)N[C@H](C(=O)N[C@@H](Cc1ccc(-c2cnc(N3CC4CCC(C3)N4C3COC3)nc2)cc1)[C@@H](O)CN(Cc1c(F)cc(-c2ccn(C3CC3)n2)cc1F)NC(=O)[C@@H](NC(=O)OC)C(C)(C)C(F)(F)F)C(C)(C)C(F)(F)F [Example 198, methyl ((5S,8S,9S,14S)-11-(4-(1-cyclopropyl-1H-pyrazol-3-yl)-2,6-difluorobenzyl)-16,16,16-trifluoro-9-hydroxy-15,15-dimethyl-8-(4-(2-(8-(oxetan-3-yl)-3,8-diazabicyclo[3.2.1]octan-3-yl)pyrimidin-5-yl)benzyl)-3,6,13-trioxo-5-(1,1,1-trifluoro-2-methylpropan-2-yl)-2-oxa-4,7,11,12-tetraazahexadecan-14-yl)carbamate]	2.19 nM	<0.11 L/H/kg	0.33 L/H/kg	–	–	–
COC(=O)N[C@H](C(=O)N[C@@H](Cc1ccc(-c2ccc3nc(N4CC5CCC(C4)N5C4COC4)ccc3n2)cc1)[C@@H](O)CN(Cc1c(F)cc(-c2ccn(C(F)F)n2)cc1F)NC(=O)[C@@H](NC(=O)OC)C(C)(C)C(F)(F)F)C(C)(C)C(F)(F)F [Example 200, Methyl ((5S,8S,9S,14S)-11-(4-(1-(difluoromethyl)-1H-pyrazol-3-yl)-2,6-difluorobenzyl)-16,16,16-trifluoro-9-hydroxy-15,15-dimethyl-8-(4-(6-(8-(oxetan-3-yl)-3,8-diazabicyclo[3.2.1]octan-3-yl)-1,5-naphthyridin-2-yl)benzyl)-3,6,13-trioxo-5-(1,1,1-trifluoro-2-methylpropan-2-yl)-2-oxa-4,7,11,12-tetraazahexadecan-14-yl)carbamate]	4.36 nM	<0.11 L/H/kg	0.19 L/H/kg	–	–	–
COC(=O)N[C@H](C(=O)N[C@@H](Cc1ccc(-c2cnc(N3CC4CCC(C3)N4C3COC3)nc2)cc1)[C@@H](O)CN(Cc1c(F)cc(-c2ncccn2)cc1F)NC(=O)[C@@H](NC(=O)OC)C(C)(C)C(F)(F)F)C(C)(C)C(F)(F)F [Example 201, Methyl ((5S,8S,9S,14S)-11-(2,6-difluoro-4-(pyrimidin-2-yl)benzyl)-16,16,16-trifluoro-9-hydroxy-15,15-dimethyl-8-(4-(2-(8-(oxetan-3-yl)-3,8-diazabicyclo [3.2.1]octan-3-yl)pyrimidin-5-yl)benzyl)-3,6,13-trioxo-5-(1,1,1-trifluoro-2-methylpropan-2-yl)-2-oxa-4,7,11,12-tetraazahexadecan-14-yl)carbamate]	2.67 nM	0.27 L/H/kg	0.49 L/H/kg	–	–	–
COC(=O)N[C@H](C(=O)N[C@@H](Cc1ccc(-c2ccc(N3CC4CCC(C3)N4C3COC3)nc2)cc1)[C@@H](O)CN(Cc1c(F)cc(-c2ccc(N3CC4CCC(C3)N4C3COC3)nc2)cc1F)NC(=O)[C@@H](NC(=O)OC)C(C)(C)C(F)(F)F)C(C)(C)C(F)(F)F [Example 203, Methyl ((5S,8S,9S,14S)-11-(2,6-difluoro-4-(6-(8-(oxetan-3-yl)-3,8-diazabicyclo [3.2.1]octan-3-yl)pyridin-3-yl)benzyl)-16,16,16-trifluoro-9-hydroxy-15,15-dimethyl-8-(4-(6-(8-(oxetan-3-yl)-3,8-diazabicyclo[3.2.1]octan-3-yl)pyridin-3-yl)benzyl)-3,6,13-trioxo-5-(1,1,1-trifluoro-2-methylpropan-2-yl)-2-oxa-4,7,11,12-tetraazahexadecan-14-yl)carbamate]	5.02 nM	0.32 L/H/kg	1.09 L/H/kg	–	–	–
COC(=O)N[C@H](C(=O)N[C@@H](Cc1ccc(-c2ccc(N3CC4CCC(C3)N4C3COC3)nc2)cc1)[C@@H](O)CN(Cc1c(F)cc(-c2ccn(C3CC3)n2)cc1F)NC(=O)[C@@H](NC(=O)OC)C(C)(C)C(F)(F)F)C(C)(C)C(F)(F)F [Example 204, Methyl ((5S,8S,9S,14S)-11-(4-(1-cyclopropyl-1H-pyrazol-3-yl)-2,6-difluorobenzyl)-16,16,16-trifluoro-9-hydroxy-15,15-dimethyl-8-(4-(6-(8-(oxetan-3-yl)-3,8-diazabicyclo[3.2.1]octan-3-yl)pyridin-3-yl)benzyl)-3,6,13-trioxo-5-(1,1,1-trifluoro-2-methylpropan-2-yl)-2-oxa-4,7,11,12-tetraazahexadecan-14-yl)carbamate]	3.18 nM	0.19 L/H/kg	0.48 L/H/kg	–	–	–
COC(=O)N[C@H](C(=O)N[C@@H](Cc1ccc(-c2ccc(N3CC4CCC(C3)N4C3COC3)nc2)cc1)[C@@H](O)CN(Cc1c(F)cc(-c2ccn(C)n2)cc1F)NC(=O)[C@@H](NC(=O)OC)C(C)(C)C)C(C)(C)C [Example 206, Methyl ((5S,8S,9S,14S)-5-(tert-butyl)-11-(2,6-difluoro-4-(1-methyl-1H-pyrazol-3-yl)benzyl)-9-hydroxy-15,15-dimethyl-8-(4-(6-(8-(oxetan-3-yl)-3,8-diazabicyclo [3.2.1]octan-3-yl)pyridin-3-yl)benzyl)-3,6,13-trioxo-2-oxa-4,7,11,12-tetraazahexadecan-14-yl)carbamate]	3.7 nM	0.41 L/H/kg	1.03 L/H/kg	–	–	–
COC(=O)N[C@H](C(=O)N[C@@H](Cc1ccc(-c2ccc(N3CC4CCC(C3)N4C3COC3)nc2)cc1)[C@@H](O)CN(Cc1c(F)cc(-c2ccn(C)n2)cc1F)NC(=O)[C@@H](NC(=O)OC)C(C)(C)C(F)(F)F)C(C)(C)C(F)(F)F [Example 207, Methyl ((5S,8S,9S,14S)-11-(2,6-difluoro-4-(1-methyl-1H-pyrazol-3-yl)benzyl)-16,16,16-trifluoro-9-hydroxy-15,15-dimethyl-8-(4-(6-(8-(oxetan-3-yl)-3,8-diazabicyclo[3.2.1]octan-3-yl)pyridin-3-yl)benzyl)-3,6,13-trioxo-5-(1,1,1-trifluoro-2-methylpropan-2-yl)-2-oxa-4,7,11,12-tetraazahexadecan-14-yl)carbamate]	2.46 nM	0.25 L/H/kg	0.92 L/H/kg	–	–	–
COC(=O)N[C@H](C(=O)N[C@@H](Cc1ccc(-c2cnn(C(F)F)c2)cc1)[C@@H](O)CN(Cc1c(F)cc(-c2ccn(C(F)F)n2)cc1F)NC(=O)[C@@H](NC(=O)OC)C(C)(C)C(F)(F)F)C(C)(C)C(F)(F)F [Example 209, Methyl ((5S,8S,9S,14S)-11-(4-(1-(difluoromethyl)-1H-pyrazol-3-yl)-2,6-difluorobenzyl)-8-(4-(1-(difluoromethyl)-1H-pyrazol-4-yl)benzyl)-16,16,16-trifluoro-9-hydroxy-15,15-dimethyl-3,6,13-trioxo-5-(1,1,1-trifluoro-2-methylpropan-2-yl)-2-oxa-4,7,11,12-tetraazahexadecan-14-yl)carbamate]	–	–	–	3.19 nM	1.12 L/H/kg	1.21 L/H/kg
CC(C)([C@H](NC(=O)OC1CC1)C(=O)N[C@@H](Cc1ccc(-c2cnn(C(F)F)c2)cc1)[C@@H](O)CN(Cc1c(F)cc(-c2cnn(C(F)F)c2)cc1F)NC(=O)[C@@H](NC(=O)OC1CC1)C(C)(C)C(F)(F)F)C(F)(F)F [Example 210, Cyclopropyl ((S)-1-(2-((2S,3S)-3-((S)-2-((cyclopropoxycarbonyl)amino)-4,4,4-trifluoro-3,3-dimethylbutanamido)-4-(4-(1-(difluoromethyl)-1H-pyrazol-4-yl)phenyl)-2-hydroxybutyl)-2-(4-(1-(difluoromethyl)-1H-pyrazol-4-yl)-2,6-difluorobenzyl)hydrazinyl)-4,4,4-trifluoro-3,3-dimethyl-1-oxobutan-2-yl)carbamate]	15 nM	–	–	–	0.18 L/H/kg	<0.18 L/H/kg

Reference: patent US10294234B2, “HIV inhibitor compounds” (priority 2017, dated 2019)
